Results reported in the NIST ThermoML archive (doi:10.1016/j.jct.2016.04.002).
Numbers after ± are expanded uncertainties.

Legend:
[1] = Crystal; DTA
[2] = Molar enthalpy of transition or fusion; settings: Crystal; DSC

O=C(O)[C@]1(O)C[C@@H](O)[C@@H](O)[C@H](O)C1
Normal melting temperature [1]: 167.01 ± 1.1 °C
Molar enthalpy of transition or fusion [2]: 12.1 ± 0.526 kcal/mol
